Measured values from the supplement of paper PMC10307832.

How the values were obtained:
Assay in all cases: relative viability (nuclei count vs DMSO), 5 days (fraction); higher = more cells survive
[1] = compound: Cc1ccccc1C(C(=O)NC1CCCCC1)N(C(=O)Cn1ccnc1C)c1cccc(F)c1 [IDH-C35] + Cc1cc(Nc2cc(N3CCN(C)CC3)nc(Sc3ccc(NC(=O)C4CC4)cc3)n2)n[nH]1 [Tozasertib] (partner 0.1 µM)
How it was run: (§1)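 Lung cancer cell lines were seeded in 1536-well plates and dosed by pin tool the next day, with either a single drug or a fixed anchor-drug dose combined with five library-drug doses (not always all listed) spaced in √10 steps. Five days later, one step fixed the cells and stained their nuclei (final 0.05% Triton X-100, 1% formaldehyde, 1 ug/ml Hoechst), and nuclei were counted on 4× images. Relative viability is the nuclei count in treated wells divided by the count in vehicle wells, and each value is the median of duplicate plates.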

[2] = compound: Cc1ccccc1C(C(=O)NC1CCCCC1)N(C(=O)Cn1ccnc1C)c1cccc(F)c1 [IDH-C35] + N=C(N)NC(=N)NCCc1ccccc1 [Phenformin] (partner 250 µM)
How it was run: as §1

[3] = compound: Cc1ccccc1C(C(=O)NC1CCCCC1)N(C(=O)Cn1ccnc1C)c1cccc(F)c1 [IDH-C35] + CC(=O)c1c(C)c2cnc(Nc3ccc(N4CCNCC4)cn3)nc2n(C2CCCC2)c1=O [Palbociclib] (partner 0.5 µM)
How it was run: as §1

[4] = compound: Cc1ccccc1C(C(=O)NC1CCCCC1)N(C(=O)Cn1ccnc1C)c1cccc(F)c1 [IDH-C35] + Cc1nc(NC(=O)N2CCC[C@H]2C(N)=O)sc1-c1ccnc(C(C)(C)C(F)(F)F)c1 [Alpelisib] (partner 2 µM)
How it was run: as §1

Cell Line	relative viability ([1]; first compound 0.08 µM)	relative viability ([1]; first compound 0.253 µM)	relative viability ([1]; first compound 0.8 µM)	relative viability ([1]; first compound 8 µM)	relative viability ([2]; first compound 0.08 µM)	relative viability ([2]; first compound 0.253 µM)	relative viability ([2]; first compound 0.8 µM)	relative viability ([2]; first compound 8 µM)	relative viability ([3]; first compound 0.08 µM)	relative viability ([3]; first compound 0.253 µM)	relative viability ([3]; first compound 0.8 µM)	relative viability ([3]; first compound 2.53 µM)	relative viability ([3]; first compound 8 µM)	relative viability ([4]; first compound 0.08 µM)	relative viability ([4]; first compound 0.253 µM)	relative viability ([4]; first compound 0.8 µM)	relative viability ([4]; first compound 2.53 µM)	relative viability ([4]; first compound 8 µM)	relative viability ([1]; first compound 2.53 µM)	relative viability ([2]; first compound 2.53 µM)
HCC-366	0.109	0.128	0.179	0.0826	0.658	0.629	0.621	0.578	0.374	0.399	0.381	0.38	0.321	0.476	0.311	0.387	0.403	0.352	–	–
HCC-827	0.4	0.394	0.388	0.433	0.425	0.348	0.384	0.406	0.475	0.483	0.397	0.562	0.472	0.917	0.897	1.04	1	0.75	0.428	0.397
HOP-62	0.394	0.368	0.334	0.331	0.718	0.649	0.634	0.677	0.377	0.435	0.426	0.419	0.394	1.07	0.876	0.953	–	0.85	0.382	0.618
IA-LM	–	–	–	–	–	–	–	–	–	–	–	–	–	0.998	0.9	0.793	0.761	0.584	–	–
LC-2-ad	0.472	0.435	0.503	0.428	0.571	0.585	0.603	0.604	0.527	0.476	0.531	0.49	0.494	0.888	0.815	0.834	0.894	0.921	–	–
LCLC-97TM1	0.397	0.189	0.184	0.231	0.388	0.453	0.465	0.346	0.192	0.22	0.213	–	0.27	0.289	0.213	0.242	–	0.242	0.196	0.407
LCLC-103H	0.554	0.435	0.47	0.38	0.308	0.338	0.344	0.34	0.498	0.483	0.532	0.518	0.484	1.05	0.979	0.918	0.963	1.09	0.499	0.364
LK-2	0.157	0.197	0.178	0.203	0.564	0.474	0.476	0.623	0.558	0.717	0.683	0.746	0.74	1.11	1.05	0.991	1.1	1.04	0.184	0.27
LOU-NH91	0.739	0.69	0.687	0.652	0.78	0.784	0.685	0.497	0.553	0.558	0.54	0.551	0.519	0.746	0.774	0.712	0.711	0.706	0.598	0.752
LU99A	0.281	0.255	0.257	0.257	1.04	0.941	0.919	0.858	0.38	0.418	0.394	0.398	0.403	0.49	0.514	0.553	0.517	0.562	0.296	0.776
LXF-289	0.17	0.173	0.201	0.166	0.543	0.507	0.524	0.517	0.574	0.584	0.591	0.604	0.583	1.04	1.03	1.01	0.994	1.03	0.209	0.508
NCI-H522	0.545	0.543	0.589	0.611	0.643	0.65	0.764	0.659	1.07	1.07	1.01	0.944	0.99	–	–	–	–	–	0.581	0.629
NCI-H596	1.01	0.866	0.937	0.788	0.781	0.819	0.705	0.786	–	–	–	–	–	0.552	0.48	0.555	0.471	0.446	–	–
NCI-H1299	–	–	–	–	–	–	–	–	–	–	–	–	–	1.06	1.02	1.09	1.05	1.04	–	–
NCI-H1563	–	–	–	–	0.703	0.625	0.696	0.649	–	–	–	–	–	0.947	0.877	1.01	0.84	0.925	–	0.623
NCI-H1648	0.567	0.499	0.511	0.541	–	–	–	–	–	0.271	0.322	0.246	0.285	–	–	–	–	–	0.525	–
NCI-H1650	0.407	0.393	0.378	0.355	0.486	0.423	0.436	0.379	0.381	0.329	0.355	0.422	0.4	–	–	–	–	–	0.444	0.462
NCI-H1703	–	–	–	–	–	–	–	–	–	–	–	–	–	0.379	0.372	0.405	0.343	0.309	–	–
NCI-H1792	–	–	–	–	0.257	0.258	0.244	0.334	0.711	0.609	0.646	0.679	0.673	0.655	0.727	0.669	0.741	0.827	–	0.483
NCI-H2342	0.482	0.54	0.483	0.442	0.572	0.566	0.579	0.527	0.578	0.535	0.475	0.526	0.662	–	–	–	–	–	0.494	0.651
SW 900	0.51	0.645	0.585	0.508	0.669	0.591	0.56	0.438	0.487	0.568	–	0.522	0.506	–	–	–	–	–	0.615	0.615
